Test results published in patent US20090325863A1, “Somatostatin analogs and IGF-I inhibition for breast cancer prevention” (priority 2008, published 2009).
Entries after “also recorded” stand apart in the source; their conditions may differ. Marks after values point to notes of the source that are not given here. *1 amine or outer side, *2 acyl side, *3 side chain or, on linkers, in order; H or OH if unused. Where a SMILES comes first, the peptide text is derived from it. Side-chain parts run from the residue outwards. [ ]: non-standard residue; d: D form. The star is where a group is joined. Ethylenediamine = C(CN[*:2])N[*:1]; Hyp = O=C(O)[C@@H]1C[C@@H](O)CN1; Phg = N[C@H](C(=O)O)c1ccccc1; CO = O=C([*:1])[*:2]; Bn = c1ccc(C*)cc1

What was measured:
SSTR-5 = SSTR-5 (Homo sapiens, UniProt P35346); conditions: cited from earlier work
SSTR-5, sequence (P35346 whole entry, species assumed): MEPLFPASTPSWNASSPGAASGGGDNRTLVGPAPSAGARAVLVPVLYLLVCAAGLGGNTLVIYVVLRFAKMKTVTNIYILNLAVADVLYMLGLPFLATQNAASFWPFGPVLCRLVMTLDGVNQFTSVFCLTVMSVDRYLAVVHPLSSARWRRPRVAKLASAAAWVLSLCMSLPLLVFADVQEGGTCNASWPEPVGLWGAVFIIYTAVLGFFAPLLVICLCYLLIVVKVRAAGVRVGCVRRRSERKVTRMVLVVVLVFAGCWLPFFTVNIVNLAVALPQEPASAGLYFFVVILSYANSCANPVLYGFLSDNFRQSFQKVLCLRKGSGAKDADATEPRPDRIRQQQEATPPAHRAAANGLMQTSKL

SSTR-3 = SSTR-3 (Homo sapiens, UniProt P32745); conditions: cited from earlier work
SSTR-3, sequence (P32745 whole entry, species assumed): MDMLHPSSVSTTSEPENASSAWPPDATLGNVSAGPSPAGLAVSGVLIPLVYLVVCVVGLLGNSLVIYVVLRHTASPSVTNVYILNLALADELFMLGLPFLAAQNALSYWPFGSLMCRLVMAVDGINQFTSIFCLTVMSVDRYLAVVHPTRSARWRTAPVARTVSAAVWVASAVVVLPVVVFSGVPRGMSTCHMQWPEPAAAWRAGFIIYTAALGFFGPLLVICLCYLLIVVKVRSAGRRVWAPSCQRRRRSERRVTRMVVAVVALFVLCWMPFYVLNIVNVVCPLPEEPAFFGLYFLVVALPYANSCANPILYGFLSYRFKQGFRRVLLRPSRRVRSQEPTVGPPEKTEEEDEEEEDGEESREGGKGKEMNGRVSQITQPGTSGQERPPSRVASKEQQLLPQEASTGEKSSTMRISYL

[1] = system: mammary hyperplasia induced by hGH and E2; experiment: Mammary hyperplasia model induced by hGH and E2, counts in histological sections; type: in vivo, rat; conditions: for Mild# (mild hyperplasia): GH + E2 control 4.2 ± 0.6, E2 1.9 ± 0.2; for Moderate# (moderate hyperplasia): GH + E2 control 5.0 ± 0.7, E2 0; for Florid# (florid hyperplasia): GH + E2 control 9.6 ± 0.1, E2 0; for Total# (total number of glands): hypophysectomized, oophorectomized female rats, hGH 600 μg + E2, 7 days, GH + E2 control 71.9 ± 5.4, E2 42.2 ± 1.4; for Florid#: GH + E2 control 10 ± 0.7
Description: To test whether SOM230, a drug that inhibits IGF-I action on the breast, was effective, we implemented a model of hyperplasia and then determined whether the hyperplasia could be inhibited by SOM230. We administered human growth hormone (600 mcg in alzet pumps) for a week, and gave this together with estradiol (an estrogen). At the end of 7 days florid hyperplasia developed. Mammary hyperplasia was modeled by treating hypophysectomized, oophorectomized female rats with high doses human growth hormone (hGH) (600 μg in Alzet pumps) and follicular phase concentrations of estradiol (E2) administered in silastic capsules for 7 days. In the absence of hGH, these animals would not undergo mammary development. In animals receiving E2 alone, there was virtually no hyperplasia. When hGH was added to E2 there were more glands (42.2±1.4 vs. 71.9±5.4, E2 vs. E2+hGH, respectively). There was no florid hyperplasia with E2 treatment. When hGH was given also, 26.6% of the glands were hyperplastic, with 50% of those being floridly hyperplastic, 7% moderate hyperplasia and 5.9% mild hyperplasia. […] This is shown in histological sections (FIG. 1), graphically (FIG. 2) and in tabular form below (TABLE 1).
Background: Antiestrogens or aromatase inhibitors are used for breast cancer chemoprevention. These treatments cause unpleasant side effects including hot flashes and vaginal dryness. We have previously shown that IGF-I is required to permit estrogen and progesterone action in the mammary gland. […] Menopausal symptoms would not likely to occur with SOM230 since estrogen is not lowered. Material and Methods: We have approached this issue in several ways. 1) We developed a model of hyperplasia in hypophysectomized and oophorectomized female rats. Hyperplasia was induced by treatment with 600 mcg hGH and follicular phase concentrations of estradiol. Hyperplasia was assessed histologically in sections of mammary gland. 2) To assess translatability to humans we assessed cell proliferation and apoptosis in normal human breast from reduction mammoplasties and samples of usual hyperplasia. 3) We also determined availability of SST receptors in samples of atypical ductal hyperplasia and DCIS, and 4) We have begun to determine whether SOM230 will prevent hyperplasia in humans at risk for breast cancer as it does in rats.
The degree of hyperplasia was analyzed in 3 histological sections at different levels in 3 test animals given GH+E2. The different types of hyperplasia were counted. For example, the total mean number of ducts was 88.3. Of those ducts, there were 19.7 or 22.3% of total ducts that were hyperplastic. The breakdown was a mean of 10 ducts with florid hyperplasia (lumen is distended and mostly obliterated by epithelial cells), a mean of 5.3 ducts with moderate hyperplasia (an increase in cell layers to >4 cells thick), and a mean of 4.4 characterized as mild hyperplasia (no more than 4 cell thickness).
There were 4 additional treatment groups and one E2 treated control group.

[2] = system: mast cells in mammary glands; experiment: Mast cells and mammary development in normally developing rats treated from day 21 to 28; type: in vivo, rat; conditions: for Mast cell density stromal / Mast cell density around glands: 28 day old rats treated from day 21, 3 animals; for Mast cell density stromal: normal 3.5 ± 0.8; for Mast cell density around glands: normal 11.5 ± 1.6
Description: (§1) We have found for the first time that mast cells play a role in normal mammary development. Mast cells appear around developing mammary gland structures in rats. […] The same animals when they were 21 days old were given SOM230. […] The mast cells are found directly around the developing glands in the stromal compartment.
Overall, the number of mast cells/mm^2 was reduced by SOM230 treatment, as per TABLE 7 below. Mast cells surrounding glands and those elsewhere in the stromal compartment were both reduced.

Factor VIII = Factor VIII immunostaining in mammary glands of normally developing rats; type: in vivo, rat; conditions: 28 day old rats treated from day 21; gland cells and mast cells
Description: They were found in both gland cells and mast cells.

[3] = system: pYIRS-1 (phosphorylated IRS-1), product of IGF-I action; experiment: Immunostaining for phosphorylated IRS-1 in mammary gland, hGH+E2 model; type: in vivo, rat; conditions: hGH+E2 treated animals; staining most intense with hGH+E2
Description: FIG. 12 depicts immunostaining for pYIRS-1 (phosphorylated IRS-1) in a representative E2 treated control (upper left), an hGH+E2 treated animal (upper right), an hGH+E2+SOM230 treated animal (lower left) and an hGH+E2+tamoxifen treated animal (lower right). The intensity of staining parallels IGF-I action as phosphorylated IRS-1 is a product of IGF-I action. In this study, staining (brown color) was most intense in response to hGH+E2 and was inhibited by both SOM230 and tamoxifen. […] This reflection of inhibition of IGF-I activity also supports the greater inhibitory effect of SOM230 over that of tamoxifen.

[4] = system: pYIRS-1 (phosphorylated IRS-1); experiment: pYIRS-1 staining in glands and mast cells of normally developing rats; type: in vivo, rat; conditions: 28 day old female rats treated from day 21
Description: as §1
That these mast cells are directly stimulated by IGF-I is supported by the observation that phosphorylated IRS-1 was reduced in mast cells on exposure to SOM230. The action of SOM230 in mammary gland is therefore one of IGF-I action inhibition. […] The one on the right panel is from an animal treated with SOM230. Not only was pYIRS-I reduced in glands but mast cells were reduced as well.

mammary development = conditions: rats; Ruan et al (2006); cited from earlier work

For `NCCCC[C@@H]1NC(=O)[C@@H](Cc2c[nH]c3ccccc23)NC(=O)[C@H](c2ccccc2)NC(=O)[C@@H]2C[C@@H](OC(=O)NCCN)CN2C(=O)[C@H](Cc2ccccc2)NC(=O)[C@H](Cc2ccc(OCc3ccccc3)cc2)NC1=O` [SOM230] (cyclo([Hyp]([CO-Ethylenediamine])[Phg][dW]KY(Bn)F)), the “affinity for SSTR-5” value (SSTR-5) is given as “has affinity”, the “affinity for SSTR-3” value (SSTR-3) is given as “has affinity” and the “number of areas of florid hyperplasia” value ([1]; Example 3, from 18.9±1.3 with hGH and E2 (p<0.001)) is given as 7.5±0.5. The “Mild# (mild hyperplasia)” value ([1]; Table 1, 7 days) was 3.0±0.4, the “Mild# (mild hyperplasia)” value ([1]; Table 1, 7 days, listed as SOM) was 3.0 ± 0.4 and the “Moderate# (moderate hyperplasia)” value ([1]; Table 1, 7 days) was 3.8±0.4. The “Moderate# (moderate hyperplasia)” value ([1]; Table 1, 7 days, listed as SOM) was 3.8 ± 0.4, the “Florid# (florid hyperplasia)” value ([1]; Table 1, 7 days) was 0.8±0.2 and the “Florid# (florid hyperplasia)” value ([1]; Table 1, 7 days, listed as SOM) was 0.8 ± 0.2. For the same compound, the “DH# (hyperplastic structures)” value ([1]; Table 1, 7 days, GH + E2 control 18.9 ± 1.3, E2 1.9 ± 0.2) was 7.5 ± 0.5^b, the “Total# (total number of glands)” value ([1]; Table 1) was 46.0±2.8 and the “Total# (total number of glands)” value ([1]; Table 1, listed as SOM) was 46.0 ± 2.8. The “Total#” value ([1]; Table 3, SOM230 30 mcg/h/kg, Octreotide 30 mcg/hr/kg, Tamoxifen 30 mg/21 day release pellet, GH + E2 control 88.3 ± 6.3) was 61.4 ± 7.0, the “Mild#” value ([1]; Table 3, same doses, GH + E2 control 4.4 ± 0.6) was 3.3 ± 0.3 and the “Moderate#” value ([1]; Table 3, same doses, GH + E2 control 5.3 ± 0.6) was 3.8 ± 0.4. For the same compound, the “Florid#” value ([1]; Table 3, same doses) was 1.7, the “Florid#” value ([1]; Table 3, same doses, listed as SOM) was 1.7 ± 0.6 and the “DH#” value ([1]; Table 3, same doses, GH + E2 control 19.7 ± 1.5) was 8.8 ± 0.7^b. For the same compound, the “hyperplasia / breast hyperplastic lesions (in words)” value ([1]; given together with hGH and estradiol, 7 days) was “hyperplasia was significantly inhibited; also recorded: reduction in the number and size of breast hyperplastic lesions; also recorded: reduction in hyperplasia”, the “Mast cell density stromal” value [2] was “reduced” and the “Mast cell density stromal” value ([2]; listed as SOM) was 1.1 ± 0.3^d MC#/1 mm^2. For the same compound, the “Mast cell density around glands” value [2] was “reduced”, the “Mast cell density around glands” value ([2]; listed as SOM) was 3.7 ± 0.7^b MC#/1 mm^2 and the micro vessel density ([2]; normally developing glands versus SOM230 treated) was “greater in glands that were developing normally”. For the same compound, the mammary development ([2]; normally developing rats treated from day 21 to 28) was “inhibit mammary development”, the “expression of Factor VIII (immunostaining)” value (Factor VIII) was “reduced expression” and the “intensity of pYIRS-1 immunostaining” value [3] was “inhibited”. For the same compound, the “pYIRS-1 in glands and mast cells” value [4] was “inhibited; also recorded: reduced”, the “IRS-1 phosphorylation in the mammary gland” value (mammary development) was “reduction in IRS-1 phosphorylation” and the mammary development (mammary development) was “prevents mammary development”.
